Reference: US9902725B2, “Heterocyclic derivatives as RORgamma modulators” (GENFIT, priority 2014, dated 2018)
Blank lines part the entries; values can stand above or below the compound they belong to.

Tests used:
[1] = Microsomal stability, human microsomes (CEREP); format: in vitro ADME; conditions: 0.1 μM, 0.1 mg/mL microsomal protein
Method: (§1) All the assays were conducted at CEREP (CEREP, France and USA). Metabolic compound stability was tested in human (CEREP, Ref 607) and mouse (CEREP, Ref: 806) microsomes. Inhibition of human drug-metabolizing cytochromes P450 was tested on the five most commonly responsible enzymes of metabolism of xenobiotics, CYP1A2 (CEREP, Ref 389), CYP2C9 (CEREP, Ref 412), CYP2C19 (CEREP, Ref 390), CYP2D6 (CEREP, Ref 1338) and CYP3A4 (CEREP, Ref 391).
(§2) Briefly, the standard conditions for CEREP's stability assays include incubation of test compound at 0.1 μM with human or mouse microsomes for 60 minutes in duplicate. The protein concentration of microsomes is 0.1 mg/mL. The parent compound is detected by HPLC-MS/MS analysis. The quantity of the parent compound that remains intact upon 60 minutes of microsome exposure (% remaining) is calculated by comparing the peak area of the parent compound at 60 minutes of exposure to the time zero.

[2] = Microsomal stability, mouse microsomes (CEREP); format: in vitro ADME; conditions: 0.1 μM, 0.1 mg/mL microsomal protein
Method: as §1, §2

[3] = target: T1, CYP1A2 (Homo sapiens, UniProt P05177); test: CYP inhibition CYP1A2 (CEREP); format: in vitro ADME; conditions: human recombinant CYP, single concentration (typically 10 μM)
T1 sequence (P05177 1-516): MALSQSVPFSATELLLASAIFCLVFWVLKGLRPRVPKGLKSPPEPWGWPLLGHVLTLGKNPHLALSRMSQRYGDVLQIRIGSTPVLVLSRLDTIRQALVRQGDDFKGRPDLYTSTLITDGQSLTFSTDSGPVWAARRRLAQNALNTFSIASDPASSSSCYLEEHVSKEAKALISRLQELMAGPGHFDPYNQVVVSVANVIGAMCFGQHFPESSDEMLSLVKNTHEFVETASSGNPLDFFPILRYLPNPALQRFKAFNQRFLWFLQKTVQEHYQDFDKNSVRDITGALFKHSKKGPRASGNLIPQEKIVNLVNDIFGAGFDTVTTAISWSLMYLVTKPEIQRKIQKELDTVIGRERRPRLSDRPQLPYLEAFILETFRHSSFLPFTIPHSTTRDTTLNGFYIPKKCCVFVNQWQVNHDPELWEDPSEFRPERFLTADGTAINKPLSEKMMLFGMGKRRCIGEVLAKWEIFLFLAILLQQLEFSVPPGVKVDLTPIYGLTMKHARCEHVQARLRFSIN
Method: as §1
(§3) Briefly, CEREP's CYP inhibition assay uses traditional probe substrates, which are specific to individual CYP isoforms. 3-cyano-7-ethoxycoumarin is mainly catalyzed by CYP1A2 and CYP2C19, 3-[2-(N,N-diethyl-N-methylammonium)ethyl]-7-methoxy-4-methylcoumarin for CYP2C9 and CYP2D6 and finally, 7-benzyloxy-4-trifluoromethylcoumarin is pathway catalyzed predominantly by CYP3A4. The inhibition assays were performed with human recombinant CYP isoforms preparations. HPLC MS/MS methods are used to detect metabolites in these assays. Compounds were tested at single concentrations (typically 10 μM) and data were expressed as percent of control inhibition.

[4] = target: CYP2C9 (Homo sapiens, UniProt P11712); test: CYP inhibition CYP2C9 (CEREP); format: in vitro ADME; conditions: single concentration (typically 10 μM)
CYP2C9, sequence (P11712 whole entry): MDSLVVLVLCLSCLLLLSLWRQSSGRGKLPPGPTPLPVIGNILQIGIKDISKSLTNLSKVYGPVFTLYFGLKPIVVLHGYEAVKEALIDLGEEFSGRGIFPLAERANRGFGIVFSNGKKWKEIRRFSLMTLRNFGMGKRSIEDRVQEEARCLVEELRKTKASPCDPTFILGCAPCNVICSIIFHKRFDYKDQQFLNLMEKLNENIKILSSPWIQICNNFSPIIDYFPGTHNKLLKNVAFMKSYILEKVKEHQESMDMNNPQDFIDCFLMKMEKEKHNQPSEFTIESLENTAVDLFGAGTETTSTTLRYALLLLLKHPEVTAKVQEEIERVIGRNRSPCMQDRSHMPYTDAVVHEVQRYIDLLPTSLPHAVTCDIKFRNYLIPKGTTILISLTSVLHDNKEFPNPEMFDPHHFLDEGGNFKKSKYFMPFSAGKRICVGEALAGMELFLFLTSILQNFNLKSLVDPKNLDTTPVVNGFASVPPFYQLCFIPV
Method: as §1, §3

[5] = target: CYP2C19 (Homo sapiens, UniProt P33261); test: CYP inhibition CYP2C19 (CEREP); format: in vitro ADME; conditions: single concentration (typically 10 μM)
CYP2C19, sequence (P33261 whole entry): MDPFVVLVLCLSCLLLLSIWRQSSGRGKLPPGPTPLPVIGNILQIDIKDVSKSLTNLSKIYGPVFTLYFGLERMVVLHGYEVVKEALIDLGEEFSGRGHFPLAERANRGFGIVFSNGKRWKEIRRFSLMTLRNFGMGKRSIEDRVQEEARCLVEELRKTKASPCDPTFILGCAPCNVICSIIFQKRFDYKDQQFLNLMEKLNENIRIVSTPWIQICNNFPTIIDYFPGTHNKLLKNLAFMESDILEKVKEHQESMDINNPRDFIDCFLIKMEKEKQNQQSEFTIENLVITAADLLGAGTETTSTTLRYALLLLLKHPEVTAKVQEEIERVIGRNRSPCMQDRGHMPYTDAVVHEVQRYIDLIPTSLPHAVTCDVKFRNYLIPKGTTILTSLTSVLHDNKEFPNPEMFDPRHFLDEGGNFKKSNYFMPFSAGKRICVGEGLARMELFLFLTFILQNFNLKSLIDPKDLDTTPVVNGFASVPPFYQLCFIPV
Method: as §1, §3

[6] = target: CYP2D6 (Homo sapiens, UniProt P10635); test: CYP inhibition CYP2D6 (CEREP); format: in vitro ADME; conditions: single concentration (typically 10 μM)
CYP2D6, sequence (P10635 whole entry): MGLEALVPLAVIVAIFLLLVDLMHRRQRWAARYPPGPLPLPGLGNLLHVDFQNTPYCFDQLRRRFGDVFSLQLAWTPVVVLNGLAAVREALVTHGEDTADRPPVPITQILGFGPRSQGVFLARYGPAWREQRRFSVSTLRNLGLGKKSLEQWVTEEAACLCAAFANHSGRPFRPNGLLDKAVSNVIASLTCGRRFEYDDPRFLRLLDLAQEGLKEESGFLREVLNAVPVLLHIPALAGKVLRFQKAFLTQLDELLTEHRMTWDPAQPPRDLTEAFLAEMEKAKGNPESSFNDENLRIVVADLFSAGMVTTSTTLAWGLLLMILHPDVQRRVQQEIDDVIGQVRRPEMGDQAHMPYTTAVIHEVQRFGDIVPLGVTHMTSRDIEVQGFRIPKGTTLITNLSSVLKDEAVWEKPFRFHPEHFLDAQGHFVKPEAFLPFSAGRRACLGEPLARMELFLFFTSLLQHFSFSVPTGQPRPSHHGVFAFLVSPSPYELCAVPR
Method: as §1, §3

[7] = target: CYP3A4 (Homo sapiens, UniProt P08684); test: CYP inhibition CYP3A4 (CEREP); format: in vitro ADME; conditions: single concentration (typically 10 μM)
CYP3A4, sequence (P08684 whole entry): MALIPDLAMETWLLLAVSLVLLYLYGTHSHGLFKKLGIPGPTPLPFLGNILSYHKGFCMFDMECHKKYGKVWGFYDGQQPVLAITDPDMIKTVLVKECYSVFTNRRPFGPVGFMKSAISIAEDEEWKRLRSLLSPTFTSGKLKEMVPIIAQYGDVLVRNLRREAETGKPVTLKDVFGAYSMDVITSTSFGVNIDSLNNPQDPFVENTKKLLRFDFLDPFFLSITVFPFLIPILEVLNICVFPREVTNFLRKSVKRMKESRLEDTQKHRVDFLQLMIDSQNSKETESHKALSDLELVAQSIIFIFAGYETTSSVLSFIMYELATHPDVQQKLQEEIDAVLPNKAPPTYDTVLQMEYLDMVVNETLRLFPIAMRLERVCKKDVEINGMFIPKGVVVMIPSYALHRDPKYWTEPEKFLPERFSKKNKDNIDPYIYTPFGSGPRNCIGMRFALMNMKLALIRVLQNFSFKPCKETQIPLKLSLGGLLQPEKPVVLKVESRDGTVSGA
Method: as §1, §3

[8] = system: MOG-induced EAE mice; test: MOG-induced EAE in mice, clinical score; format: in vivo
Method: 8-10 week old, male C57BL/6 mice were purchased from Janvier Lab (St Berthevin, France) and housed in a specific pathogen free (SPF) animal facility for one week before the start of the studies. Peptide antigen MOG35-55 (Myelin Oligodendrocyte Glycoprotein) ([…], SEQ ID NO:1, Polypeptide group, France) was dissolved in PBS and emulsified with an equal volume of Complete Freund's Adjuvant (CFA) containing 5 mg/mL of mycobacteria and administrated by subcutaneous injection at the dorsal flanks on day 0 at 200 μg/mouse. To ensure induction of reliable EAE, 200 ng of Bordetella pertussis toxin (Sigma) was given via intraperitoneal injection at day 0 and 2 (Cua, Sherlock et al. 2003; Zhang, Gran et al. 2003). Animals were treated with drug beginning 2 days before peptide injection. Animals were randomized into groups for treatment by weight, so that the average weight of each group was similar. The groups were segregated by cage. Compounds according to the invention were suspended in Carboxymethyl Cellulose (CMC) 1% (Sigma) and Tween80 0.1% (Sigma) by sonication and animals were dosed daily by gavage with 10 mL/kg body weight. The daily dose of Cpd. 1 was 30 mg/kg and vidofludimus (reference compound) at 60 mg/kg in protocol 1 to assess IL-17 A and IL-17F secretion from splenocytes ex vivo. In protocol 2, mice were treated with Cpd. 1 at 3 and 10 mg/Kg or T4 compound at 1 and 10 mg/kg daily by gavage to assess the clinical score. Clinical assessment of EAE was performed daily according to the following criteria: 0) no disease, 1) limp tail, 2) weak/partially paralyzed hind legs, 3) completely paralyzed hind legs, 4) complete hind and partial front leg paralysis, and 5) complete paralysis/death. For Cytokine quantifications, mice were euthanized 20 days after EAE induction. Spleen-isolated cells were collected and adjusted to 2×10^6 cells/mL. Cells were cultured in complete RPMI medium (RPMI supplemented with 10% of fetal calf serum, 1% glutamine, and 1% penicillin/streptomycin). Spleen cells were stimulated with MOG (20 μg/mL) (Polypeptide group, France). Cytokine levels were evaluated 48 h later by ELISA (R&D Systems Europe) or HTRF (CisBio, France) in culture supernatants using IL-17A and IL-17-F according to the manufacturer's protocols. The statistical significance was based on Student's t test (p<0.05, unpaired test).

[9] = system: multiple sclerosis model; conditions: administered by injection; cited from earlier work
[10] = system: psoriasis model; conditions: administered by injection; cited from earlier work
[11] = system: refractory Crohn diseased patients; conditions: phase IIb; cited from earlier work

Human microsomes (% Cpd. remaining at 60 min) [1]: 0% | Mouse microsomes (% Cpd. remaining at 60 min) [2]: 0% | CYP 1A2 (% inhibition of Control) [3]: −5% | CYP 2C9 (% inhibition of Control) ([4]; human recombinant CYP): 75% | CYP 2C19 (% inhibition of Control) ([5]; human recombinant CYP): 92% | CYP 2D6 (% inhibition of Control) ([6]; human recombinant CYP): 19% | CYP 3A4 (% inhibition of Control) ([7]; human recombinant CYP): 93%
Compound: Cc1ccc(C(NC(=O)Cc2ccc3oc(C(O)c4c(C)noc4C)cc3c2)c2ccccc2)c(C)c1 (single isomer, unassigned) [Cpd. T-3, 2-(2-(hydroxy(3,5-dimethylisoxazol-4-yl)methyl)benzofuran-5-yl)-N-((2,4-dimethylphenyl)(phenyl)methyl)acetamide, reference compound]

Human microsomes (% Cpd. remaining at 60 min) [1]: 0% | Mouse microsomes (% Cpd. remaining at 60 min) [2]: 0% | CYP 1A2 (% inhibition of Control) [3]: −3% | inhibition at 10 µM ([4]; human, recombinant CYP2C9, human recombinant CYP, read-out: CYP 2C9 (% inhibition of Control)): 73% | inhibition at 10 µM ([5]; human, recombinant CYP2C19, probe 3-cyano-7-ethoxycoumarin, read-out: CYP 2C19 (% inhibition of Control)): 85% | inhibition at 10 µM ([6]; human, recombinant CYP2D6, human recombinant CYP, read-out: CYP 2D6 (% inhibition of Control)): 31% | inhibition at 10 µM ([7]; human, recombinant CYP3A4, probe 7-benzyloxy-4-trifluoromethylcoumarin, read-out: CYP 3A4 (% inhibition of Control)): 82%
Compound: Cc1ccc(C(NC(=O)Cc2ccc3oc(C(O)c4c(C)noc4C)cc3c2)c2ccccc2)c(C)c1 (single isomer, unassigned) [Cpd. T-4, 2-(2-(hydroxy(3,5-dimethylisoxazol-4-yl)methyl)benzofuran-5-yl)-N-((2,4-dimethylphenyl)(phenyl)methyl)acetamide, reference compound]
EAE clinical score ([8]; daily by gavage, Cpd. 1 at 3 and 10 mg/Kg, T4 compound at 1 and 10 mg/kg): wasn't effective

Compound: CC(=O)Nc1nc(C)c(S(=O)(=O)Nc2ccc(C(O)(C(F)(F)F)C(F)(F)F)cc2)s1 [SR1001]
efficacy in multiple sclerosis model [9]: efficacious

Compound: Cc1ccc([C@@H](NC(=O)Cc2ccc3oc([C@@H](O)c4c(C)noc4C)cc3c2)c2ccccc2)c(C)c1 [TMP778]
efficacy in psoriasis model [10]: efficacious

Compound: Cc1ccc(C(NC(=O)Cc2ccc3oc(C(O)c4c(C)noc4C)cc3c2)c2ccccc2)c(C)c1 (centres unmarked) [compound T, 2-(2-(hydroxy(3,5-dimethylisoxazol-4-yl)methyl)benzofuran-5-yl)-N-((2,4-dimethylphenyl)(phenyl)methyl)acetamide, reference compound]
onset of EAE ([8]; administered p/os (orally) for 20 days): ineffective | efficacy in psoriasis model [10]: efficacious

Compound: Ustekinumab: anti-p40 monoclonal antibody that targets Th17 and Th1 through IL-23 and IL-12
clinical efficacy in refractory Crohn diseased patients [11]: clinical (phase IIb) efficacy
